Source: article PMC4818757, “Small molecule inhibitors of the Dishevelled‐CXXC5 interaction are new drug candidates for bone anabolic osteoporosis therapy” (EMBO Molecular Medicine, 2016)
Entries after “also recorded” stand apart in the source; their conditions may differ. Where two headings read alike, the source gives them in different places.

Assays:
TA-98 = tested on: TA-98
Source text: (§1) Appendix Table S3. Bacterial reverse mutation assay with KY-02327
(§2) a Number of revertant colonies of treated plate/Number of revertant colonies of
(§3) vehicle control plate (Maron & Ames, 1983).
(§4) b Negative control. Vehicle: DMSO

TA-100 = tested on: TA-100
Source text: as §1, §2, §3, §4

MC3T3E1 cells = test: qRT-PCR of osteoblast differentiation markers in MC3T3E1 cells; assay type: cell-based, murine; conditions: dose‐dependent
Procedure: Figure 5 Effects of KY‐02327 on Wnt/β‐catenin pathway and osteoblast differentiation in osteoblasts • A MC3T3E1 cells were transfected with pTOPFLASH together with pCMV‐β‐gal. After 24 h, the cells were treated with indicated dose of KY‐02327 for 2 days. The luciferase activities of whole‐cell lysates were measured and normalized with β‐galactosidase activities. (n = 3) • B, C MC3T3E1 cells were treated with indicated concentrations of KY‐02327 for 2 days. β‐Catenin and α‐tubulin were detected by immunoblot (B) or immunofluorescence (C) analyses. Nuclei were counterstained with DAPI (C, blue). Scale bars, 100 μm. • D MC3T3E1 cells were treated with indicated concentrations of KY‐02327 for 14 days. The mRNA level of collagen 1a (Col1a) was measured by quantitative real‐time PCR (qRT–PCR). […] The mRNA level of osteocalcin (OCN) was measured by qRT–PCR. […] (error bars), and significance was assessed using unpaired Student's t‐test.
(§5) MC3T3E1 cells and primary calvaria cells were maintained in supplemented α‐MEM. […] For quantitative real‐time PCR (qRT–PCR), total mRNAs were extracted using TRIzol (Invitrogen), complementary DNAs were prepared using Maxime PCR PreMix (iNtRON Biotechnology, Sungnam, Korea), and the qRT–PCRs were performed using SYBR Premix Ex Taq (TaKaRa, Shiga, Japan) in the StepOnePlus Real‐Time PCR machine (Thermo Fisher Scientific, Waltham, MA). […]

CYP3A4 = CYP3A4 (Homo sapiens, UniProt P08684); test: in vitro; conditions: probe fluorogenic P450 substrates
Chain of CYP3A4 (P08684 whole entry): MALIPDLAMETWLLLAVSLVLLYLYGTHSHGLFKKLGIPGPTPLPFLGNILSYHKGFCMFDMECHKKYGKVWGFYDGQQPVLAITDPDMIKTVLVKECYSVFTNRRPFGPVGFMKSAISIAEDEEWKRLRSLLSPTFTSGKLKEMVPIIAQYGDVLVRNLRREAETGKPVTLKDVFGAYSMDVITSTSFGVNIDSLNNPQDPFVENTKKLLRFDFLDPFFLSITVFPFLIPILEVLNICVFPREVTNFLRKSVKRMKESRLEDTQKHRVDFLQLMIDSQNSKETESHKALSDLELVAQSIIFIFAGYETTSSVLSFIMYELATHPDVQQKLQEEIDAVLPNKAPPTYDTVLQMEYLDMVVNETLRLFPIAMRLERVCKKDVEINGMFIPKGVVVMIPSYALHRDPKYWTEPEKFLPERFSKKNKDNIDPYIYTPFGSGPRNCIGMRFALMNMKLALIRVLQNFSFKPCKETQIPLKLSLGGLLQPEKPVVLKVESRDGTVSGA

[1] = target: T1, Cytochrome P450 (CYP) 1A2 (Homo sapiens, UniProt P05177); test: Cytochrome P450 inhibition assay, 1A2; conditions: 10 μM; 1A2, C29 and 3A4 together
T1 sequence (P05177 1-516): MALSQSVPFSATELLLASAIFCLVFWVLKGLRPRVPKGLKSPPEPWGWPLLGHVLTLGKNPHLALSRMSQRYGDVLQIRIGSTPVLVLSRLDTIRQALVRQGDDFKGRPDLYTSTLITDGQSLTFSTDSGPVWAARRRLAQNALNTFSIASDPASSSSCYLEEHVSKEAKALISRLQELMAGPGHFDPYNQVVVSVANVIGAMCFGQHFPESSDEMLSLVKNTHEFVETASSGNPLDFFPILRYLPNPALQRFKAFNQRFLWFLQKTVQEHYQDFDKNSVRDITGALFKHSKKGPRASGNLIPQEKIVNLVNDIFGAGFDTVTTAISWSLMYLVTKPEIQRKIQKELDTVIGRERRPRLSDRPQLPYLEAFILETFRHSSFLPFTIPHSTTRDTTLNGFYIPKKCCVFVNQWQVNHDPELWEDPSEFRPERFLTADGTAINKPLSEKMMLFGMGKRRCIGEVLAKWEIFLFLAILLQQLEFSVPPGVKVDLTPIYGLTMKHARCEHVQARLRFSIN

CYP1A2 = target: T2, CYP1A2 (Homo sapiens, UniProt P05177); test: in vitro; conditions: probe fluorogenic P450 substrates
T2 sequence (P05177 1-516): T1 sequence (P05177 1-516)

primary calvaria cells [2] = test: β-catenin / Runx2 immunofluorescence in primary calvaria cells; assay type: cell-based, mouse
primary osteoblast cells = test: ALP staining of primary calvaria (osteoblast) cells; assay type: cell-based, mouse; conditions: 4 days
Procedure: Figure 3 Effect of KY‐02061 on Wnt/β‐catenin pathway, osteoblast differentiation, and ex vivo‐cultured calvaria growth • A MC3T3E1 cells were transfected with pTOPFLASH together with pCMV‐β‐gal. After 24 h, the cells were treated with DMSO, KY‐02061 in DMSO, or 5 μM PolyR‐DBM for 2 days. The luciferase activities of whole‐cell lysates were measured and normalized with β‐galactosidase activities. (n = 3) • B Primary calvaria cells were isolated from the calvariae of 4‐day‐old mice (Manton et al, 2007) and treated with DMSO or KY‐02061 in DMSO for 4 days. ALP activity levels were visualized by ALP staining. • C Primary calvaria cells were treated with DMSO or 5 μM KY‐02061 in DMSO for 14 days. […] The calvaria thicknesses were measured from the stained sections using Image Pro software (E). […] (error bars), and significance was assessed using unpaired Student's t‐test.
as §5

primary calvaria cells [3] = test: MTT cell viability of primary calvaria cells; assay type: cell-based, mouse; conditions: 2 μM
Procedure: Appendix Figure S2. The effects of Dvl-CXXC5 binding small molecule inhibitors on primary calvaria cells.
A Primary calvaria cells were treated with 2 µ M of each compound for the indicated times. The cells were subjected to an MTT assay (OD590 reading) to measure cell viability. The data are the mean ± s.d. (error […]
B Primary calvaria cells were treated with 2 µ M of each compound for 4 days. ALP activity levels were visualized by ALP staining. [n =2]
(1 picture or pasted object on this page, not shown here)

In the case of `CCOC(=O)c1cc2cc(O)ccc2n1CC(=O)NCCN1CCCCC1` [KY‐02327], the “Factor (revertant colonies treated plate / vehicle control plate)” value (TA-98; TA-98, Without S-9 mix) is reported as 1.0, the “Revertant colonies/plate (Mean)” value (TA-98; TA-98, Without S-9 mix, dose (g/plate): KY-02327 1000, 2-NF 1) is reported as 19 colonies/plate and the “genetic toxicity in bacterial reverse mutation assay” value (TA-98; TA-98 and TA-100) is reported as “no genetic toxicity”. For the same compound, the “Factor (revertant colonies treated plate / vehicle control plate)” value (TA-100; TA-100, With S-9 mix) was 1.0, the “Revertant colonies/plate (Mean)” value (TA-100; TA-100, With S-9 mix, dose (g/plate): KY-02327 1000, B.P 2) was 117 ± 8 colonies/plate and the “Factor (revertant colonies treated plate / vehicle control plate)” value (TA-100; TA-100, Without S-9 mix) was 1.0. The “Revertant colonies/plate (Mean)” value (TA-100; TA-100, Without S-9 mix, dose (g/plate): KY-02327 1000, S.A 1) was 123 ± 6 colonies/plate, the “mRNA level of collagen 1a (Col1a)” value (MC3T3E1 cells; 14 days) was “increased” and the “mRNA level of osteocalcin (OCN)” value (MC3T3E1 cells; 21 days) was “increased”. The inhibition at 10 µM (CYP3A4) was 0%, the “inhibitory effect on the liver enzymes (cytochrome P450)” value [1] was “no inhibitory effect” and the inhibition at 10 µM (CYP1A2) was 0%.

For `CCOC(=O)Cn1c(C(=O)OCC)cc2cc(OS(=O)(=O)c3ccc(C)cc3)ccc21` [KY‐02061], the “nuclear accumulation of β‐catenin” value (primary calvaria cells [2]; 2 μM, 2 days) was “strong accumulation”, the “levels of Runx2 and β‐catenin” value (primary calvaria cells [2]; 5 μM, 14 days) was “increased levels” and the “Alkaline phosphatase (ALP) activity” value (primary osteoblast cells; 2 μM) was “increased; also recorded: strongest increase”. The “ALP activity, dose dependence” value (primary osteoblast cells) was “increased in a dose‐dependent manner” and the “cytotoxic effect (cell number and viability)” value (primary calvaria cells [3]) was “without any cytotoxic effect”.
